Data taken from ChEMBL document CHEMBL5647688, “Mitogen-activated protein kinase (MEK/ERK) inhibition sensitizes cancer cells to centromere-associated protein E inhibition” (Int J Cancer, 2013).

Experiments:
Format in all cases: functional
SK-N-FI [1] = test: Synergistic cytotoxicity against human SK-N-FI cells assessed as combination index at ED 75 measured after 72 hrs in presence of temozolomide by Cell-titer Glo reagent assay
NB-1691 [2] = test: Synergistic cytotoxicity against human NB-1691 cells assessed as combination index at ED 50 measured after 72 hrs in presence of temozolomide and SN-38 by Cell-titer Glo reagent assay
NCI-H2228 [3] = test: Synergistic cytotoxicity against human NCI-H2228 cells assessed as combination index at ED75 measured after 72 hrs in presence of MEK inhibitor GSK1120212 by Cell-titer Glo reagent assay
SK-N-FI [4] = test: Synergistic cytotoxicity against human SK-N-FI cells assessed as combination index at ED 75 measured after 72 hrs in presence of sequential treatment of […] inhibitor CI-1040 by Cell-titer Glo reagent assay
CAPAN-1 = test: Synergistic cytotoxicity against human CAPAN-1 cells expressing KRAS mutant assessed as combination index at ED 50 measured after 72 hrs in presence of MEK inhibitor GSK1120212 by Cell-titer Glo reagent assay
NB-1691 [5] = test: Synergistic cytotoxicity against human NB-1691 cells assessed as combination index at ED 75 measured after 72 hrs in presence of temozolomide and SN-38 by Cell-titer Glo reagent assay
SW-620 = test: Synergistic cytotoxicity against human SW620 cells expressing KRAS mutant assessed as combination index at ED 50 measured after 72 hrs in presence of MEK inhibitor GSK1120212 by Cell-titer Glo reagent assay
NCI-H2122 = test: Synergistic cytotoxicity against human NCI-H2122 cells expressing KRAS mutant assessed as combination index at ED 50 measured after 72 hrs in presence of MEK inhibitor GSK1120212 by Cell-titer Glo reagent assay
SW1990 = test: Synergistic cytotoxicity against human SW1990 cells expressing KRAS mutant assessed as combination index at ED 50 measured after 72 hrs in presence of MEK inhibitor GSK1120212 by Cell-titer Glo reagent assay
NB-1691 [6] = test: Synergistic cytotoxicity against human NB-1691 cells assessed as combination index at ED 50 measured after 72 hrs in presence of SN-38 by Cell-titer Glo reagent assay
Calu-6 = test: Synergistic cytotoxicity against human Calu-6 cells expressing KRAS mutant assessed as combination index at ED75 measured after 72 hrs in presence of MEK inhibitor GSK1120212 by Cell-titer Glo reagent assay
NCI-H358 [7] = test: Synergistic cytotoxicity against human NCI-H358 cells expressing KRAS mutant assessed as combination index at ED75 measured after 72 hrs in presence of MEK inhibitor GSK1120212 by Cell-titer Glo reagent assay
SW900 = test: Synergistic cytotoxicity against human SW900 cells expressing KRAS mutant assessed as combination index at ED75 measured after 72 hrs in presence of MEK inhibitor GSK1120212 by Cell-titer Glo reagent assay
NCI-H358 [8] = test: Synergistic cytotoxicity against human NCI-H358 cells expressing KRAS mutant assessed as combination index at ED 50 measured after 72 hrs in presence of MEK inhibitor GSK1120212 by Cell-titer Glo reagent assay
NCI-H23 = test: Synergistic cytotoxicity against human NCI-H23 cells assessed as combination index at ED75 measured after 72 hrs in presence of MEK inhibitor GSK1120212 by Cell-titer Glo reagent assay
SK-N-FI [9] = test: Synergistic cytotoxicity against human SK-N-FI cells assessed as combination index at ED 75 measured after 72 hrs in presence of SN-38 by Cell-titer Glo reagent assay
Capan-2 = test: Synergistic cytotoxicity against human Capan-2 cells expressing KRAS mutant assessed as combination index at ED 50 measured after 72 hrs in presence of MEK inhibitor GSK1120212 by Cell-titer Glo reagent assay
NB-1691 [10] = test: Synergistic cytotoxicity against human NB-1691 cells assessed as combination index at ED 75 measured after 72 hrs in presence of SN-38 by Cell-titer Glo reagent assay
HuP-T4 = test: Synergistic cytotoxicity against human HuP-T4 cells expressing KRAS mutant assessed as combination index at ED75 measured after 72 hrs in presence of MEK inhibitor GSK1120212 by Cell-titer Glo reagent assay
ASPC1 = test: Synergistic cytotoxicity against human ASPC1 cells expressing KRAS mutant assessed as combination index at ED75 measured after 72 hrs in presence of MEK inhibitor GSK1120212 by Cell-titer Glo reagent assay
[11] = Synergistic cytotoxicity against human NB-1771 cells assessed as combination index at ED 75 measured after 72 hrs in presence of concurrent treatment of […] inhibitor CI-1040 by Cell-titer Glo reagent assay
SK-N-FI [12] = test: Synergistic cytotoxicity against human SK-N-FI cells assessed as combination index at ED 50 measured after 72 hrs in presence of sequential treatment of […] inhibitor CI-1040 by Cell-titer Glo reagent assay
NCI-H520 = test: Synergistic cytotoxicity against human NCI-H520 cells assessed as combination index at ED75 measured after 72 hrs in presence of MEK inhibitor GSK1120212 by Cell-titer Glo reagent assay
MIA PaCa-2 = test: Synergistic cytotoxicity against human MIA PaCa-2 cells expressing KRAS mutant assessed as combination index at ED75 measured after 72 hrs in presence of MEK inhibitor GSK1120212 by Cell-titer Glo reagent assay
NCI-H2170 = test: Synergistic cytotoxicity against human NCI-H2170 cells assessed as combination index at ED75 measured after 72 hrs in presence of MEK inhibitor GSK1120212 by Cell-titer Glo reagent assay
A549 = test: Synergistic cytotoxicity against human A549 cells expressing KRAS mutant assessed as combination index at ED 50 measured after 72 hrs in presence of MEK inhibitor GSK1120212 by Cell-titer Glo reagent assay
SW48 = test: Synergistic cytotoxicity against human SW48 cells assessed as combination index at ED 50 measured after 72 hrs in presence of MEK inhibitor GSK1120212 by Cell-titer Glo reagent assay
NCI-H1792 = test: Synergistic cytotoxicity against human NCI-H1792 cells expressing KRAS mutant assessed as combination index at ED 50 measured after 72 hrs in presence of MEK inhibitor GSK1120212 by Cell-titer Glo reagent assay
NCI-H2228 [13] = test: Synergistic cytotoxicity against human NCI-H2228 cells assessed as combination index at ED 50 measured after 72 hrs in presence of MEK inhibitor GSK1120212 by Cell-titer Glo reagent assay
NCI-H460 = test: Synergistic cytotoxicity against human NCI-H460 cells expressing KRAS mutant assessed as combination index at ED 50 measured after 72 hrs in presence of MEK inhibitor GSK1120212 by Cell-titer Glo reagent assay

CC(C)Oc1ccc(C(=O)N[C@H](CNC(=O)CN(C)C)Cc2ccc(-c3cn4cccc([C@H](C)O)c4n3)cc2)cc1Cl [GSK-923295A]
CI (SK-N-FI [1]): 0.94
CI (NB-1691 [2]): 0.049
CI (NCI-H2228 [3]): 0.404
CI (SK-N-FI [4]): 0.757
CI (CAPAN-1): 0.053
CI (NB-1691 [5]): 0.3
CI (SW-620): 0.521
CI (NCI-H2122): 0.85
CI (SW1990): 0.176
CI (NB-1691 [6]): 0.394
CI (Calu-6): 0.533
CI (NCI-H358 [7]): 0.467
CI (SW900): 0.653
CI (NCI-H358 [8]): 0.416
CI (NCI-H23): 0.234
CI (SK-N-FI [9]): 1.754
CI (Capan-2): 0.298
CI (NB-1691 [10]): 0.886
CI (HuP-T4): 0.892
CI (ASPC1): 0.323
CI [11]: 0.118
CI (SK-N-FI [12]): 0.834
CI (NCI-H520): 0.715
CI (MIA PaCa-2): 0.311
CI (NCI-H2170): 0.624
CI (A549): 0.614
CI (SW48): 0.36
CI (NCI-H1792): 0.484
CI (NCI-H2228 [13]): 0.317
CI (NCI-H460): 0.25
